From patent US8809550B2, “Androgen receptor antagonists and uses thereof” (priority 2009, dated 2014)
Like-named read-outs stand apart in the source and are kept apart here.

Tests used:
[1] = test system: Prostate-specific Antigen (PSA) production in LNCaP cells; experiment: PSA assay: inhibition of PSA production in LNCaP cells (ELISA); format: cell-based; conditions: Homo sapiens; for IC50: 72 h, R1881 1 ng/ml, three days, seven point assay
Protocol: (§1) PSA Assay (Inhibition Test of the Compound of the Present Invention on Prostate-Specific Antigen (PSA) Production in Various Prostate Cancer Cells)
(§2) Androgen dependent LNCaP and 22RV1 cells were purchased from the American Type Culture Collection (ATCC, Manassas, Va.). These cells were grown in RPMI 1640 medium supplemented with 10% fetal bovine serum (FBS), 100 U/mL penicillin, 100 μg/mL streptomycin, and 0.25 μg/mL amphotericin B. The cells were maintained at 37° C. and 5% CO2. LNCaP cells between passage 20 and 35, and 22RV1 cells between passage 30 and 50 were used for experiments. LNCaP is a hormone sensitive cell line, while 22RV1 is a hormone refractory prostate cancer cell line, which derived from a primary prostate tumor. This cell line was isolated from a xenograft (CWR22R-2152) that was serially propagated in mice after castration-induced regression and relapse of the parental, androgen-dependent CWR xenograft. For the PSA assay, human prostate cancer cells LNCaP or 22RV1 were seeded in a 96-well plate at a concentration of 5000 cells/100 μl/well. On the following day, Methyltrienolone (R1881, AR agonist) (final concentration 1 ng/ml), test compounds or bicalutamide (Casodex®, AstraZeneca) (final concentration 0.005 to 20 μM) were added. Three days after the addition, the concentration of PSA in the supernatant of the culture solution was measured by ELISA. ELISAs for human PSA in culture medium were performed using the ultra-sensitive assay procedure and reagents in the Active™ PSA assay kit (Diagnostic Systems Laboratories Inc., Webster, Tex.). Culture medium and standards (200 μl/well) were incubated in antibody-coated plates for 2 h at room temperature on a Titer plate shaker at 500-600 rpm. Wells were then washed five times. The HRP conjugate was diluted 1:20 with assay buffer, and 100 μl was added to all wells. The plates were incubated for 30 min at room temperature on the shaker and washed as before, and 100 μl TMB (3,3′,5,5′-tetramethylbenzidine, 0.4 g/l) was added. The plates were incubated for 10 min on the shaker, and the reaction was terminated with 100 μl stop solution. The plates were read using a plate reader at 450 nm with a 650 nm reference filter. PSA levels were normalized for differences in growth of LNCaP or 22RV1 cells following various treatments as determined by the MTS assay. IC50 of PSA was calculated based on a seven point assay (concentrations of tested compound) and expressed as micromolar (uM). Results on 22RV1 cells are shown as percent inhibition at 2 micromolar (uM). ND means not determined

[2] = test system: Prostate-specific Antigen (PSA) production in 22RV1 cells; experiment: PSA assay: inhibition of PSA production in 22RV1 cells (ELISA); format: cell-based; conditions: Homo sapiens, 72 h, R1881 1 ng/ml, three days
Protocol: as §1
as §2, with “Results on 22RV1 cells are shown as percent inhibition at 2 micromolar (uM).” left out

LNCaP cells = experiment: Cell viability assay, LNCaP cells; format: cell-based; conditions: Homo sapiens, read-out: Inhibition of cell viability, LNCaP % inhibition at 2.5 uM
Protocol: (§3) LNCaP and 22RV1 cells were maintained in RPMI 1640 medium supplemented with 10% fetal bovine serum (FBS), 100 U/mL penicillin, 100 μg/mL streptomycin, and 0.25 μg/mL amphotericin B, splitting cells when they reached 80-90% confluence. In order to test compounds, 10,000 cells/well were plated in 96 cell culture plates using 100 ul/well plating medium, cultured overnight at 37° C. in a cell culture incubator. After carefully remove plating medium, 80 ul/well of pre-warmed assay medium was added, followed by adding 10 ul/well test compounds or bicalutamide (final concentration from 20 uM to 0.1 uM), incubated at 37° C. for 30 minutes, then adding 10 ul/well freshly prepared Methyltrienolone (R1881, AR agonist) (final concentration 1 ng/ml) to each well, incubate at 37° C. for 48-hour. At the end of incubation, 20 μl MTT (2.5 mg/ml in PBS) was added to each well, and the cells were further incubated for 2 h at 37 C to allow a complete reaction between the dye and the enzyme mitochondrial dehydrogenase in the viable cells. After removal of the residual dye and medium, 100 μl dimethylsulfoxide was added to each well, and the absorbance at 570 nm was measured with an microplate reader. The fold induction over background by 1 nM R1881 in the absence of test compounds is standardized as 100% and experimental result is expressed as percentage of inhibition by testing compounds at 2.5 micromolar (uM).

22RV1 cells = experiment: Cell viability assay, 22RV1 cells; format: cell-based, human; conditions: for cytotoxicity at 2.5 µM: Homo sapiens, read-out: Inhibition of cell viability, 22RV1 % inhibition at 2.5 uM
Protocol: as §3

[3] = LNCaP cells, 2.5 uM, R1881 1 ng/ml, 48-hour
[4] = 22RV1 cells, 2.5 uM, R1881 1 ng/ml, 48-hour

| SMILES | IC50 [1] [nM] | inhibition at 2 µM [2] [%] | cytotoxicity at 2.5 µM (LNCaP cells; [3]) [%] | cytotoxicity at 2.5 µM (22RV1 cells; [4]) [%] | cytotoxicity at 2.5 µM (LNCaP cells; LNCaP, 48 h) [%] | cytotoxicity at 2.5 µM (22RV1 cells; 22Rv1, 48 h) [%] | inhibition at 1 µM ([1]; 1 micromolar (summary text b205)) [%] | Inhibition of cell viability, 22RV1 % inhibition at 2.5 uM (22RV1 cells; [4]) [%] |
| --- | --- | --- | --- | --- | --- | --- | --- | --- |
| COc1c(C#N)ccc(N2C(=O)C(C)(C)N(c3ccc(C#N)cc3)C2=S)c1F [Example 32, 4-(4,4-Dimethyl-5-oxo-2-thioxo-3-p-cyanophenyl-imidazolidin-1-yl)-3-fluoro-2-methoxy-benzonitrile] | 120 | 88 | 87 | 64 | – | – | – | – |
| COc1c(C#N)ccc(N2C(=O)C(C)(C)N(c3ccc(C)nc3)C2=S)c1F [Example 20, 4-[4,4-Dimethyl-3-(6-methyl-pyridin-3-yl)-5-oxo-2-thioxo-imidazolidin-1-yl]-3-fluoro-2-methoxy-benzonitrile] | 280 | 69 | – | – | 68 | 44 | – | – |
| COc1c(C#N)ccc(N2C(=O)C(C)(C)N(c3ccc(F)cc3)C2=S)c1F [Example 19, 3-Fluoro-4-[3-(4-fluoro-phenyl)-4,4-dimethyl-5-oxo-2-thioxo-imidazolidin-1-yl]-2-methoxy-benzonitrile] | 290 | 72 | 87 | 63 | – | – | – | – |
| Cc1ccc(N2C(=S)N(c3ccc(C#N)c(C#N)c3)C(=O)C2(C)C)cc1 [Example 24, 4-(4,4-Dimethyl-5-oxo-2-thioxo-3-p-tolyl-imidazolidin-1-yl)-phthalonitrile] | 200 | 91 | – | – | 47 | 27 | – | – |
| CNC(=O)c1ccc(N2C(=S)N(c3ccc(C#N)c(C(F)(F)F)c3F)C(=O)C23CCC3)cc1F [Example 10, 4-[7-(4-Cyano-2-fluoro-3-trifluoromethyl-phenyl)-8-oxo-6-thioxo-5,7-diaza-spiro[3.4]oct-5-yl]-2-fluoro-N-methyl-benzamide] | 380 | 78 | – | – | 91 | 69 | – | – |
| CNC(=O)c1ccc(N2C(=S)N(c3ccc(C#N)c(Cl)c3F)C(=O)C23CCC3)cc1F [Example 8, 4-[7-(3-Chloro-4-cyano-2-fluoro-phenyl)-8-oxo-6-thioxo-5,7-diaza-spiro[3.4]oct-5-yl]-2-fluoro-N-methyl-benzamide] | 850 | 77 | – | – | 86 | 59 | – | – |
| CC(O)(CS(=O)(=O)c1ccc(F)cc1)C(=O)Nc1ccc(C#N)c(C(F)(F)F)c1 (stereo not drawn) [Bicalutamide, bicalutamide, reference compound] | 3100 | 18 | 21 | < 10 | – | – | 34 | <10 |
| CNC(=O)c1ccc(N2C(=S)N(c3ccc(C#N)c(Cl)c3F)C(=O)C2(C)C)cc1F [Example 11, 4-[3-(3-Chloro-4-cyano-2-fluoro-phenyl)-5,5-dimethyl-4-oxo-2-thioxo-imidazolidin-1-yl]-2-fluoro-N-methyl-benzamide] | 230 | 81 | – | – | 85 | 56 | – | – |
| CNC(=O)c1ccc(N2C(=S)N(c3ccc(C#N)c(OC)c3)C(=O)C23CCC3)cc1F [Example 2, 4-[7-(4-Cyano-3-methoxy-phenyl)-8-oxo-6-thioxo-5,7-diaza-spiro[3.4]oct-5-yl]-2-fluoro-N-methyl-benzamide] | 450 | 47 | – | – | 59 | 41 | – | – |
| CC1(C)C(=O)N(c2ccc(C#N)c(Cl)c2F)C(=S)N1c1ccc(C#N)cc1 [Example 18, 4-(4,4-Dimethyl-5-oxo-2-thioxo-3-p-cyanophenyl-imidazolidin-1-yl)-3-fluoro-2-chloro-benzonitrile] | 92 | 89 | – | – | 91 | 57 | – | – |
